Source: US7655420B2, “Methods to increase or decrease bone density” (Celltech R & D, Inc., priority 2002, dated 2010)
“Also recorded” adds a separate entry of the source. Blank lines part the entries; values can stand above or below the molecule they belong to.

Columns and labels:
[1] = test system: SOST expression; test: SOST expression in hMSC cells and primary human osteoblasts treated with growth factors and hormones (RT-PCR); format: cell-based; settings: 72 hrs; for SOST expression, factor alone: hMSC cells (and primary human osteoblasts), RT-PCR; for SOST expression, steroid added in combination with BMP-4 versus BMP-4 alone: hMSC cells, vit D 10^−7M, RA 10^−6M, DEX 10^−7M
Experimental: (§1) As immature osteoblasts differentiate and become capable of mineralization, they express markers associated with the osteoblast phenotype (type I collagen and parathyroid hormone receptor (PTHr)). These markers were used to ascertain whether differentiation had occurred so that the influence of growth factors and hormones could be correlated with the stage differentiation as well as the level of SOST expression.
(§2) Human mesenchymal cells and primary human osteoblasts were plated in regular growth media containing 2% FCS at a density of 10,000 cells 1 cm^2. Test reagents (10^−7 M dexamethasone, 10^−6 M retinoic acid, 10 ng/ml TGF-β1, PTH (10^−8 M), 10 or 50 ng/ml IGF-1, 10^−7 M1,25-dihydroxyvitamin D3, and 50 to 300 ng/ml of bone morphogenetic proteins 2, 4 or 6) were added singly or in combination on the following day.

[2] = test system: noggin expression; test: noggin expression in hMSC cells treated with BMPs and steroids (RT-PCR); format: cell-based, human; settings: 72 hrs
Experimental: as §1, §2

[3] = test system: gremlin expression; test: gremlin expression in hMSC cells treated with BMPs and steroids (RT-PCR); format: cell-based, human; settings: 72 hrs; for BMP-4 induced gremlin expression, steroid added with BMP-4: BMP-4 100 ng/ml; for gremlin expression, factor alone: RT-PCR
Experimental: as §1, §2

[4] = test system: PTHr expression; test: PTHr expression in hMSC cells treated with factors (RT-PCR); format: cell-based, human; settings: 72 hrs, IGF-1 at 50 ng/ml, DEX 10^−7M
Description: as §1, with “In this example, the effect of growth factors and hormones on SOST expression in hMSC cells or primary human osteoblasts was observed using RT-PCR. […] As” for “As”
as §2, with “day. Cultures were continued for 24 to 120 hrs after which the cells were harvested for RNA isolation.” for “day.”

[5] = test system: SOST expression; test: BMP-6 induction of SOST expression in hMSC cells with test compounds (RT-PCR); format: cell-based, human; settings: for Results (effect on BMP-6 induction of SOST expression): BMP-6, 72 hrs, compound at 1 × 10^−7 M
Experimental: The previous example illustrates that SOST expression was enhanced by bone morphogenetic proteins and modulated by steroids such as dexamethasone. In this example, human MSC cells were incubated with bone morphogenetic proteins in the presence of various test agents to determine whether other steroids and compounds could affect the BMP-induction of SOST. SOST expression was monitored by reverse transcriptase polymerase chain reaction (RT-PCR).
Human mesenchymal cells (hMSCs) were plated in regular growth media containing 2% FCS and treated with BMP-6 either alone or in combination with the test compounds. The cells were harvested 72 hrs later and RNA was prepared for RT-PCR analysis of SOST expression.

[6] = test system: caspase activity in hMSC cells; test: apoptosis of hMSC cells by caspase activity (Homogeneous Caspase ELISA); format: cell-based, human; settings: for caspase activity: hMSC in osteoblast-inducing media, 20 μg/ml sclerostin or other protein, 24 hours; for apoptosis of hMSC cells (caspase activity), rat versus human sclerostin: 24 hrs
Experimental: Human mesenchymal (hMSC) cells were plated in Osteoblast-inducing media (Biowhittaker's MSCGM medium supplemented with 100 nM dexamethasone, 50 μg/ml ascorbic acid, and 10 mM β-glycerophosphate) at a density of 10,000 cells/cm^2 in 96-well dishes.
For apoptosis assays, cells were treated with sclerostin or commercially available preparations of the BMP antagonists noggin, chordin, gremlin or twisted gastrulation (Tsg) for 24 hours prior to assay for caspase activity. In some experiments, cells were treated for various times with a partially purified preparation of baculovirus-expressed human sclerostin (0 to 30 μg/ml) or an equal volume of a protein preparation purified from Sf9 conditioned media (control) in the absence or presence of Calbiochem's caspase inhibitors. Cells were harvested and processed for apoptosis assays using the Homogeneous Caspase ELISA (Roche) or Cell Death (Histone-Associated DNA Fragmentation, Roche).

[7] = test system: alkaline phosphatase (ALP) activity in hMSC cells; test: alkaline phosphatase activity in differentiating hMSC cells; format: cell-based, human; settings: hMSC cells, Osteoblast-Inducing media, 7 days
Experimental: hMSC cells were plated in 96-well tissue culture dishes at a density of 10,000 cells/cm^2 in Osteoblast-Inducing medium. Partially purified preparations of baculovirus-expressed sclerostin protein were prepared in sterile PBS using NAP-5 columns prior to use. Human sclerostin protein (0 to 30 μg/ml) or an equal volume of Sf9 conditioned media (Control) was added to cultures of hMSC cells at various times after plating (1 day, 8 days, 15 days, or 21 days). The effects of sclerostin on osteoblastic differentiation were assessed by measuring alkaline phosphatase activity (ALP, determined in cell layers using DEAA buffer (Pierce) containing 0.5% NP-40 and 10 mM p-nitrophenylphosphate), synthesis of collagen type I (Prolagen C ELISA), and calcium deposition for mineralization (colorimetric assay of acid lysates of cell layers, Sigma).

[8] = test system: BMP-6 stimulated alkaline phosphatase activity; test: BMP-6 stimulated alkaline phosphatase activity in mouse mesenchymal C3H10T1/2 cells; format: cell-based
Experimental: C3H10T1/2 cells (ATCC Deposit No. CCL-226) were plated in 96-well dishes at a density of 25,000 cells per well in complete growth medium (DMEM with high glucose and glutamine supplemented with 10% FCS, 1% penicillin/streptomycin, 0.1 mM non-essential amino acids, 1 mM sodium pyruvate, 55 μM β-mercaptoethanol, and 20 mM HEPES, pH 7.3). C3H10T1/2 cells were used in a short-term (72 hr) assay to determine the effects of human sclerostin protein on BMP-induced ALP activity. Partially purified preparations of bacculovirus-expressed sclerostin protein were prepared in sterile PBS using NAP-5 columns prior to use. Sclerostin protein (0 to 50 μg/ml) or an equal volume of Sf9 conditioned media (control) was pre-incubated with 500 ng/ml BMP-6 for 1 hr prior to addition to cells. For comparison, similar incubations were carried out with anti-BMP-6 antibody and noggin. Cells were harvested 72 hrs later for determination of ALP activity.
To test the specificity of the sclerostin effect, human sclerostin that was synthesized with a FLAG tag, was pre-incubated for 2 hrs at 4° C. with an anti-FLAG antibody coupled to agarose beads. The mixture was then spun down at 10,000×g for 15 minutes at 4° C. and the supernatant treated as “sclerostin protein” in the above assay.

Molecule: CC1=C(/C=C/C(C)=C/C=C/C(C)=C/C(=O)O)C(C)(C)CCC1 [retinoic acid, reference compound]
SOST expression, factor alone [1]: no effect

Molecule: TGF-β: transforming growth factor-β
SOST expression, factor alone [1]: no effect

Molecule: C=C1/C(=C\C=C2/CCC[C@]3(C)[C@@H]([C@H](C)CCCC(C)(C)O)CC[C@@H]23)C[C@@H](O)C[C@@H]1O [vitamin D, 1,25-dihydroxyvitamin D3, reference compound]
SOST expression, factor alone [1]: no effect | SOST expression, steroid added in combination with BMP-4 versus BMP-4 alone [1]: enhanced | noggin expression, factor alone [2]: increase | BMP-4 induced gremlin expression, steroid added with BMP-4 [3]: did not alter | gremlin expression, factor alone [3]: unchanged

Molecule: IGF-1: insulin-like growth factor-1
SOST expression, factor alone [1]: enhanced | PTHr expression [4]: induced

Molecule: C[C@@H]1C[C@H]2[C@@H]3CCC4=CC(=O)C=C[C@]4(C)[C@@]3(F)[C@@H](O)C[C@]2(C)[C@@]1(O)C(=O)CO [Dexamethasone, dexamethasone, reference compound]
SOST expression, factor alone [1]: no effect | SOST expression, steroid added in combination with BMP-4 versus BMP-4 alone [1]: abolished the stimulatory effect | SOST expression, steroid added in combination with BMP-4 versus BMP-4 alone ([1]; listed as dexamethasone): abolished the stimulatory effect; also recorded: significantly suppressed; also recorded: depressed | noggin expression, factor alone [2]: increase | induction of SOST expression by BMP-6 (BMP-induced SOST expression) ([5]; 72 hrs, no single concentration stated in the sentence): blocks | Results (effect on BMP-6 induction of SOST expression) [5]: blocked; also recorded: Inhibition | Results (effect on BMP-6 induction of SOST expression) ([5]; listed as DEX): blocked | BMP-4 induced gremlin expression, steroid added with BMP-4 [3]: diminished | gremlin expression, factor alone [3]: decreased | PTHr expression [4]: induced

B1: Tsg: twisted gastrulation, commercially available BMP antagonist (protein, UniProt Q9GZX9 26-223, looked up)
Twisted gastrulation protein …: CNKALCASDVSKCLIQELCQCRPGEGNCSCCKECMLCLGALWDECCDCVGMCNPRNYSDTPPTSKSTVEELHEPIPSLFRALTEGDTQLNWNIVSFPVAEELSHHENLVSFLETVNQPHHQNVSVPSNNVHAPYSSDKEHMCTVVYFDDCMSIHQCKISCESMGASKYRWFHNACCECIGPECIDYGSKTVKCMNCMF
caspase activity [6]: no increase; also recorded: no significant effect

IC50, decrease of BMP-6 stimulated alkaline phosphatase activity ([8]; pre-incubated with 500 ng/ml BMP-6 for 1 hr, 72 hrs): 0.3 µg/mL
B2: noggin: BMP antagonist protein (mouse noggin), purchased from R & D Systems (protein)
chain: QHYLHIRPAPSDNLPLVDLIEHPDPIFDPKEKDLNETLLRSLLGGHYDPGFMATSPPEDRPGGGGGPAGGAEDLAELDQLLRQRPSGAMPSEIKGLEFSEGLAQGKKQRLSKKLRRKLQMWLWSQTFCPVLYAWNDLGSRFWPRYVKVGSCFSKRSCSVPEGMVCKPSKSVHLTVLRWRCQRRGGQRCGWIPIQYPIISECKCSC
caspase activity [6]: no increase; also recorded: no significant effect | ALP activity ([7]; protein at 1 μg/ml): no effect | ALP activity ([7]; protein at 5 μg/ml): significantly increased | stimulatory effect of BMP-6 on alkaline phosphatase activity (antagonism) ([8]; 500 ng/ml BMP-6, 72 hrs): antagonized

B3: rat sclerostin: rat sclerostin protein (SEQ ID NO:8) (protein, listed as Rattus norvegicus)
chain: MQLSLAPCLACLLVHAAFVAVESQGWQAFKNDATEIIPGLREYPEPPQELENNQTMNRAENGGRPPHHPYDTKDVSEYSCRELHYTRFVTDGPCRSAKPVTELVCSGQCGPARLLPNAIGRVKWWRPNGPDFRCIPDRYRAQRVQLLCPGGAAPRSRKVRLVASCKCKRLTRFHNQSELKDFGPETARPQKGRKPRPRARGAKANQAELENAY
apoptosis of hMSC cells (caspase activity), rat versus human sclerostin [6]: induced the apoptosis | apoptosis of hMSC cells (caspase activity), rat versus human sclerostin ([6]; listed as Rat sclerostin): increased the apoptosis of hMSC cells but to a lesser extent

B4: BMP-4: bone morphogenetic protein 4, purchased from R & D Systems (protein, UniProt P12644 293-408, looked up)
Bone morphogenetic protein 4: SPKHHSQRARKKNKNCRRHSLYVDFSDVGWNDWIVAPPGYQAFYCHGDCPFPLADHLNSTNHAIVQTLVNSVNSSIPKACCVPTELSAISMLYLDEYDKVVLKNYQEMVVEGCGCR
SOST expression, factor alone [1]: enhanced; also recorded: up-regulated; also recorded: significantly increased | noggin expression, factor alone [2]: up-regulated; also recorded: enhanced; also recorded: increase | gremlin expression, factor alone [3]: only modestly increased; also recorded: enhanced

B5: PTH: parathyroid hormone (PTH), tested at 10^−8 M (peptide, UniProt P01270 32-115, looked up)
Parathyroid hormone: SVSEIQLMHNLGKHLNSMERVEWLRKKLQDVHNFVALGAPLAPRDAGSQRPRKKEDNVLVESHEKSLGEADKADVNVLTKAKSQ
modifications: Parathyroid hormone
notes: parathyroid hormone (PTH), tested at 10^−8 M
SOST expression, factor alone [1]: no effect
